Measurements taken from patent publication US5324725A, “7-fused 2-(piperazinoalkyl) indole derivatives, intermediates and compositions thereof” (Kali-Chemie Pharma GmbH, priority 1991, dated 1994).
Like-named read-outs stand apart in the source and are kept apart here.

Columns and labels:
[1] = tested on: Passive cutaneous anaphylaxis (P.C.A.); experiment: Inhibition of passive cutaneous anaphylaxis (P.C.A.); format: in vivo, rat (Sprague-Dawley); settings: Rattus norvegicus, 1 h; rats, 2 × 10^-5 mol/kg p.o., one hour before ovalbumin challenge
Protocol: (§1) 1. Determination of the inhibition of passive cutaneous anaphylaxis (P.C.A.) and of the anaphylactoid cutaneous reaction induced by histamine.
The P.C.A. reaction was carried out according to the methods described by Goose et al. (J.N. Immunology 16 (1969), 749) and by Martin et al (Arch. Pharmacol. 316 (1981), 186}.
The IgE-rich ovalbumin antiserum used in the test was obtained from immunized Brown-Norway rats. For immunization, the rats were given an i.p. injection of a mixture of 100 μg of ovalbumin with a Bordetella pertussis suspension (Vaxicoq®, Manufacturer: Institut Merieux, containing 5×10^9 organisms and 1.25 mg of Al(OH)3). After 20 days, the animals received a further i.p. injection of a solution of 10 μg of ovaIbumin in 0.5 ml of physiological saline solution for reimmunisation. After a further four days, the animals were bled, and the blood was centrifuged The antiserum obtained in this way was stored at -20° C. until use.
(§2) The determination of the inhibition of passive cutaneous anaphylaxis and the anaphylactoid cutaneous reaction induced by histamine was carried out as follows:
Sprague-Dawley rats having a body weight of 150-180 g were injected intradermally in one flank with 50 μl of a 1:75 dilution of the IgE-rich ovalbumin antiserum in physiological sodium chloride solution for passive sensitization to ovalbumin.
24 hours after sensitization a solution of 8.25 mg/kg of ovalbumin and 26.4 mg/kg of a blue dye (Evans' Blue) was administered i.v. to the rats according to Martin et al. to induce passive cutaneous anaphylaxis. The ovalbumin challenge caused a local anaphylactic reaction at the site at which the antiserum had been injected.
(§3) On the test days, the test substances were dissolved in distilled water which contained 1% by volume of dimethylformamide and 1% by volume of Tween®20 (polyoxyethylene(20) sorbitan monolaurate). One hour before the challenging ovalbumin administration, each animal received 2×10^-5 mol/kg of test substance administered orally in 0.5 ml of solution. A control group received only the solvent for comparison.
(§4) The oedematous anaphylactic (P.C.A.) and anaphylactoid (histamine-induced) reactions caused by the challenging i.v. ovalbumin injection, which are manifested by oedema formation, swelling and exudation of blue dye, were evaluated 30 minutes after challenge by the i.v. ovalbumin injection. This was done by visual determination of the extent to which the blue dye emerges at the sites of oedema formation. The percentage inhibition of anaphylactic and anaphylactoid reactions caused by the test substances was determined in comparison with the reactions of the control animals not treated with test substance with the aid of comparison scales.
(§5) The results obtained by the above test methods using compounds of the formula I are shown in the following Table A. The example numbers given for the compounds of formula I relate to the following preparation examples.

[2] = tested on: P.A.F.-induced aggregation of platelets from rabbit blood; experiment: Anti-P.A.F. effect in vitro: inhibition of P.A.F.-induced platelet aggregation; format: cell-based, rabbit (New Zealand hybrids); settings: Oryctolagus cuniculus, Platelet, test substance concentration 10^-5 mol/l
Description: 4. Determination of anti-P.A.F. effect in vitro.
Platelet-activating factor (P.A.F.) is a phospholipid mediator which has several effects. The activation of platelet aggregation leads to the induction of protracted broncho contractions and hyperreactivity of the airways.
The effects of the test substances on platelet aggregation induced by adding P.A.F. to a platelet suspension obtained from rabbit blood was investigated by the method described by Mikashima et al. (Jap. J. Pharmacol. 44 (1987) 387-391).
A suspension of platelets originating from rabbit blood was used which contained 4×10^9 platelets/ml in a modified Tyrode buffer solution adjusted to pH 7.4. Tyrode solution is an aqueous solution containing 136.9 mmol of NaCl, 2.68 mmol of KCl, 2.31 mmol of CaCl2, 1.0 mmol of MgCl2, 11.9 mmol of NaHCO3, 1.45 mmol of NaH2 PO4 and 5.55 mmol of glucose per liter. This solution was modified by adding 1.3 mM/l of CaCl2 and 2.5 g/l of gelatin. The platelets were obtained from 10 ml blood samples from each of three rabbits (New Zealand hybrids, body weight 3-4 kg). For this, the blood samples were treated with ethylenediaminetetraacetic acid and washed by the method of Artley et al. (Brit. J. Hamatol. 19 (1970), 7-17). A platelet-rich plasma was then initially separated by centrifugation (20 minutes at 400×g). The platelets were separated from the plasma by centrifuging again for 15 minutes at 1400×g. After centrifuging, the platelets remaining as a sediment were resuspended in a calcium-free Tyrode buffer solution. 0.4 mmol of lysine acetylsalicylate were then added and after 15 minutes the blood platelets were sedimented again. The sediment was resuspended in the abovementioned modified Tyrode buffer solution, and the number of platelets in the resulting suspension was adjusted to the desired content.
A 40×10^-9 molar P.A.F. solution was used as the reagent. This solution was prepared from a 1.8×10^-3 molar stock solution in chloroform. For this, a 10μl sample of the stock solution was evaporated to dryness and redissolved in 180 μl of the modified Tyrode solution, to which 0.25% of dilapidated bovine serum albumin had been added. 10^-5 molar working solutions were then prepared from this and stored frozen. Samples of these solutions were appropriately diluted for the tests.
To carry out the tests, 50 μl of the platelet solution and 10 μl of a 40×10^-5 molar solution of the compound to be investigated were added to 330 μl of the modified Tyrode buffer solution with stirring (1000 rpm) in an aggregation tube provided with a small magnetic stirrer. This corresponds to a final test substance concentration of 10^-5 mol/l. After a preincubation time of 90seconds, 10 μl of the P.A.F. preparation were added. The aggregation occurring in the aggregation tubes was measured for 4-5 minutes using a computerized aggregometer.
The aggregation occurring in the test tubes containing only platelet suspension was rated as 0%. The aggregation occurring in test tubes containing platelet suspension and P.A.F. preparation was rated as 100%. The aggregation which still occurred in the presence of the test substances (i.e. during inhibition of the P.A.F.-induced platelet aggregation increase) was measured, and the resulting aggregation inhibition is calculated from this in %.

[3] = tested on: Histamine-induced anaphylactoid reactions; experiment: Inhibition of anaphylactoid cutaneous reaction induced by histamine; format: in vivo, rat (Sprague-Dawley); settings: Rattus norvegicus, 1 h; rats, 2 × 10^-5 mol/kg p.o., one hour before challenge; histamine intradermal
Protocol: as §1, §2
To determine the histamine-induced anaphylactoid skin reaction, the animals were injected intradermally in the flank opposite to the antiserum administration with 50 μl of a physiological saline solution containing 0.8 mg/ml of histamine directly before the i.v. injection of the solution containing the ovalbumin and the blue dye.
as §3, §4, §5

histamine (H1) receptor = biological target: T1, histamine (H1) receptor (Cavia porcellus, UniProt P31389); experiment: Antihistamine (H1) effect: inhibition of histamine-induced contractions of isolated guinea-pig ileum in vitro; format: cell-based, guinea-pig (Dunkin Hartley); settings: histamine 5 × 10^-6 mol/l, test substance 10^-6 mol/l
T1 construct: isolated smooth muscle of the guinea-pig ileum; from tissue; host or cells: isolated ileum segments of Dunkin Hartley guinea-pigs
T1 sequence (P31389 whole entry): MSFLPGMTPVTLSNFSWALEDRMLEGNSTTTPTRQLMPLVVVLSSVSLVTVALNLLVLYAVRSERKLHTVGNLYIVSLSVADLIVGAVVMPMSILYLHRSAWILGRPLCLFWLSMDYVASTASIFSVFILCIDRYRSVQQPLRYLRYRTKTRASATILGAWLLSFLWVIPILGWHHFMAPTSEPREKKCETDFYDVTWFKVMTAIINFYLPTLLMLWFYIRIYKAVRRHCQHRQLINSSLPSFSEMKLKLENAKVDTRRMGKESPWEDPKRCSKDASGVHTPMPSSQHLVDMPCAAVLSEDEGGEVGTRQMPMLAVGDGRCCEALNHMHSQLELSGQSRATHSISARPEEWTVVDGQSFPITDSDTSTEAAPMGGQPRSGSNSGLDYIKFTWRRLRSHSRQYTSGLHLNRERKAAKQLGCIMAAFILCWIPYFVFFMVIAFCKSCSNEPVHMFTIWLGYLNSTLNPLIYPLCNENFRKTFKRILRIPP
Protocol: 3. Investigation of the antihistamine (H1) effect based on histamine (H1) receptor antagonism in vitro.
To investigate the histamine (H1) receptor antagonism of the substances, the inhibitory effect thereof on histamine-induced contractions of the smooth musculature of isolated organ was determined in vitro. Isolated strips of organ from the ileum were used. In an organ bath of physiological saline solution, they react to addition of histamine by contracting. Addition of the compounds of the invention decreases this histamine-induced contraction of the smooth musculature of the ileum strips. The extent of decrease of the contraction is an indication of the antihistamine (H1) activity of the compounds. The investigation is carried out analogously to the method originally described by Magnus (Pflugers Arch. 102, 123 (1904)).
Experimental description of the determination of the inhibitory effect on the contraction induced by a 5×10^-6 molar histamine concentration on isolated smooth muscle of the guinea-pig ileum.
For the test, 1.5 cm long segments of the ileum from Dunkin Hartley guinea-pigs having a body weight of 300-500 g were employed. Each strip was placed in an organ bath of 10 ml of Krebs-Henseleit physiological saline solution and attached to a customary apparatus for isotonically measuring changes in length of the ileum strip (automated Celaster measuring apparatus) so that the tissue is under a tension of 1 g. The bath was kept at a pH of 7.4 and aerated with a mixture of 5% CO2 and 95% O2. After an equilibration phase, an isotonic contraction of the tissue was produced by adding histamine in a final concentration of 5×10^-6 mol/l and was washed out again after a contact time of 30 seconds. Only those tissues in which three reproducible contractions were obtained at 10 minute intervals were used in the subsequent test. The test substances were then added in a final concentration of 10^-6 mol/l, and after a contact time of 30 seconds histamine was again added up to a concentration of 5×10^-6 mol/l. The contractions which occurred were measured over the course of 30 seconds. The tissue was then washed several times over a period of 10 minutes. A contraction challenge was then induced again by addition of histamine. The contractions which occurred were again measured over 30 seconds. The difference between the amplitude of the contraction obtained by histamine addition alone and the amplitude of the contraction obtained in the presence of the test substance was determined and calculated as % inhibition.
The inhibitory effects on the contractions induced by histamine 30 seconds after administration of the test substance and on the contractions induced by addition of histamine 10 minutes afterward are given in the table.

inhibition at 1 µM (histamine (H1) receptor; after 30 sec., read-out: in vitro (H1) receptor antagonism % inhibitory effect on histamine-induced contractions of the Ileum, after 30 sec.) [%] | inhibition at 1 µM (histamine (H1) receptor; after 10 min. (after washing), read-out: in vitro (H1) receptor antagonism % inhibitory effect on histamine-induced contractions of the Ileum, after 10 min.) [%] | SMILES | inhibition in vivo at 20 µmol/kg [1] [%] | inhibition at 10 µM [2] [%] | inhibition in vivo at 20 µmol/kg [3] [%]
 |  | Cc1ccnc(N2CCN(CCc3c(-c4ccc(Cl)cc4)n4c5c(cccc35)CCC4)CC2)c1 [Example 46] | 35 | 91 | 25
25 | 24 | Cc1ccnc(N2CCN(CCc3c(C)n4c5c(cccc35)[S+]([O-])CC4)CC2)c1 (stereo not shown) [Example 28a, 2,3-Dihydro-5-methyl-6-{2-[4-(4-methylpyridin-2-yl)-piperazin-1-yl]ethyl}-pyrrolo[1,2,3-de]-1,4-benzothiazine-1-oxide] | 100 |  | 90
